Data from patent publication US20230398130A1, “METHODS AND COMPOSITIONS FOR DIFFERENTIATING STEM CELLS” (Massachusetts Institute of Technology, priority 2020, published 2023).

Columns and labels:
ISC-enriched organoids [1] = assay: Primary screen, 384-well 2.5-D organoid differentiation (ENR+CD, 6 days, Target Selective Inhibitor Library, vs whole-plate median): ATP (CellTiter-Glo 3D, CTG); details: for Dose.FC.CTG: ENR+CD, 6 days, FC vs plate median; for Z.CTG: standard z score of FC
ISC-enriched organoids [2] = assay: Primary screen, 384-well 2.5-D organoid differentiation (ENR+CD, 6 days): basal lysozyme secretion (LYZ.NS); assay type: cell-based, murine; details: for Dose.FC.LYZ.NS: ENR+CD, 6 days, FC vs plate median; for Z.LYZ.NS: standard z score of FC
Source text: (§1) High-throughput screening.

ISC-enriched organoids [3] = assay: Primary screen, 384-well 2.5-D organoid differentiation (ENR+CD, 6 days): carbachol-induced lysozyme secretion (LYZ.S); assay type: cell-based, murine; details: ENR+CD, 6 days, FC vs plate median
Source text: as §1

ISC-enriched organoids [4] = assay: Secondary (validation) screen, 384-well 2.5-D, ENR+CD 6 days, n=8 wells, vs ENR+CD+DMSO control: ATP (CTG); assay type: cell-based, murine; parameters: key to Dose.FC.CTG: log10 fold change vs median of vehicle control wells
Description: (§2) Drugs were tested at a narrowed dose range around each treatment's identified optimal dose from the primary screen (4× below, 2× above and below).
as §1
(§3) Secondary lysozyme secretion assay screen. Confirmatory secondary screening with primary hits was performed using the above 384-well plate method. The screen was conducted with 4-plate replicates with a base media of ENR+CD. Media was supplemented with compound at day 0 and day 3 (n=8 well replicates per dose) at four different doses: two-fold above, two-fold below, and four-fold below the optimal final dose for each respective treatment. Additionally, each plate carried a large number of ENR+DMSO or ENR+CD+DMSO (vehicle) control wells (n=100 for ATP, and n=25 for LYZ.NS and LYZ.S) for robust normalization. ATP, non-stimulated lysozyme activity and CCh-stimulated lysozyme activity was again measured and the collected data was again processed in a custom R-script, per primary screen with slight modification. Values were log10 transformed, and a plate-wise FC was calculated for each well based on the median value of ENR+CD+DMSO (vehicle) control wells to normalize plate to plate variability.

ISC-enriched organoids [5] = assay: Secondary (validation) screen, 384-well 2.5-D, ENR+CD 6 days, n=8 wells, vs ENR+CD+DMSO control: carbachol-induced lysozyme secretion (LYZ.S); assay type: cell-based, murine
Description: as §2, §1, §3

ISC-enriched organoids [6] = assay: Secondary (validation) screen, 384-well 2.5-D, ENR+CD 6 days, n=8 wells, vs ENR+CD+DMSO control: basal lysozyme secretion (LYZ.NS); assay type: cell-based, murine; parameters: key to Dose.FC.LYZ.NS: log10 fold change vs median of vehicle control wells
Description: as §2, §1, §3

`NC1(Cc2ccc(Cl)cc2)CCN(c2ncnc3[nH]ccc23)CC1` [CCT128930, reference compound] gave a Dose.FC.CTG (ISC-enriched organoids [1]; Dose 0.08 uM) of 0.095 log 2 fold change, a Z.CTG (ISC-enriched organoids [1]; Dose 0.08 uM) of 0.228 and a Dose.FC.CTG (ISC-enriched organoids [1]; Dose 0.40 uM) of −0.025 log 2 fold change. The Z.CTG (ISC-enriched organoids [1]; Dose 0.40 uM) was −0.060, the Dose.FC.CTG (ISC-enriched organoids [1]; Dose 2.00 uM) was 0.127 log 2 fold change and the Z.CTG (ISC-enriched organoids [1]; Dose 2.00 uM) was 0.304. For the same compound, the Dose.FC.CTG (ISC-enriched organoids [1]; Dose 10.00 uM) was −0.175 log 2 fold change, the Z.CTG (ISC-enriched organoids [1]; Dose 10.00 uM) was −0.418 and the Dose.FC.LYZ.NS (ISC-enriched organoids [2]; Dose 0.08 uM) was 0.323 log 2 fold change. The Z.LYZ.NS (ISC-enriched organoids [2]; Dose 0.08 uM) was 2.811, the Dose.FC.LYZ.NS (ISC-enriched organoids [2]; Dose 0.40 uM) was −0.018 log 2 fold change and the Z.LYZ.NS (ISC-enriched organoids [2]; Dose 0.40 uM) was −0.154. It also gave a Dose.FC.LYZ.NS (ISC-enriched organoids [2]; Dose 2.00 uM) of 0.073 log 2 fold change, a Z.LYZ.NS (ISC-enriched organoids [2]; Dose 2.00 uM) of 0.633 and a Dose.FC.LYZ.NS (ISC-enriched organoids [2]; Dose 10.00 uM) of −0.150 log 2 fold change. For the same compound, the Z.LYZ.NS (ISC-enriched organoids [2]; Dose 10.00 uM) was −1.307, the Dose.FC.LYZ.S (ISC-enriched organoids [3]; Dose 0.08 uM) was 0.266 log 2 fold change and the Dose.FC.LYZ.S (ISC-enriched organoids [3]; Dose 0.40 uM) was −0.007 log 2 fold change. The Dose.FC.LYZ.S (ISC-enriched organoids [3]; Dose 2.00 uM) was 0.053 log 2 fold change, the Dose.FC.LYZ.S (ISC-enriched organoids [3]; Dose 10.00 uM) was −0.201 log 2 fold change and the Dose.FC.CTG (ISC-enriched organoids [4]; Dose 0.02 uM) was −0.117. The Z.CTG (ISC-enriched organoids [4]; Dose 0.02 uM) was −1.054, the repSSMD.CTG (ISC-enriched organoids [4]; Dose 0.02 uM) was −0.787 and the Dose.FC.CTG (ISC-enriched organoids [4]; Dose 0.04 uM) was 0.122. The Z.CTG (ISC-enriched organoids [4]; Dose 0.04 uM) was 1.101, the repSSMD.CTG (ISC-enriched organoids [4]; Dose 0.04 uM) was 0.922 and the Dose.FC.CTG (ISC-enriched organoids [4]; Dose […]) was −0.088. For the same compound, the Dose.FC.CTG (ISC-enriched organoids [4]; dose 0.08 uM) was 0.166, the Z.CTG (ISC-enriched organoids [4]; dose 0.08 uM) was 1.494 and the repSSMD.CTG (ISC-enriched organoids [4]; dose 0.08 uM) was 1.047. For the same compound, the Z.LYZ.S (ISC-enriched organoids [5]; Dose 0.02 uM) was −2.445, the “log10 fold change in stimulated lysozyme secretion vs vehicle control” value (from here on “log10 fold change”) (ISC-enriched organoids [5]; Dose 0.02 uM) was −0.319 and the repSSMD.LYZ.S (ISC-enriched organoids [5]; Dose 0.02 uM) was −3.825. For the same compound, the Z.LYZ.S (ISC-enriched organoids [5]; Dose 0.04 uM) was −0.108, the “log10 fold change” value (ISC-enriched organoids [5]; Dose 0.04 uM) was −0.014 and the repSSMD.LYZ.S (ISC-enriched organoids [5]; Dose 0.04 uM) was −0.157. For the same compound, the “log10 fold change” value (ISC-enriched organoids [5]; Dose […]) was −0.217, the Z.LYZ.S (ISC-enriched organoids [5]; dose 0.08 uM) was 0.041 and the “log10 fold change” value (ISC-enriched organoids [5]; dose 0.08 uM) was 0.005. The repSSMD.LYZ.S (ISC-enriched organoids [5]; dose 0.08 uM) was 0.069, the Dose.FC.LYZ.NS (ISC-enriched organoids [6]; Dose 0.02 uM) was −0.241 and the Z.LYZ.NS (ISC-enriched organoids [6]; Dose 0.02 uM) was −1.927. For the same compound, the repSSMD.LYZ.NS (ISC-enriched organoids [6]; Dose 0.02 uM) was −2.551, the Dose.FC.LYZ.NS (ISC-enriched organoids [6]; Dose 0.04 uM) was −0.020 and the Z.LYZ.NS (ISC-enriched organoids [6]; Dose 0.04 uM) was −0.164. It also gave a repSSMD.LYZ.NS (ISC-enriched organoids [6]; Dose 0.04 uM) of −0.204, a Dose.FC.LYZ.NS (ISC-enriched organoids [6]; Dose […]) of −0.160 and a Dose.FC.LYZ.NS (ISC-enriched organoids [6]; dose 0.08 uM) of 0.031. For the same compound, the Z.LYZ.NS (ISC-enriched organoids [6]; dose 0.08 uM) was 0.248 and the repSSMD.LYZ.NS (ISC-enriched organoids [6]; dose 0.08 uM) was 0.366.
